Source: US11406707B2, “STAT3 phosphorylation during graft-versus-host disease” (H. LEE MOFFITT CANCER CENTER AND RESEARCH INSTITUTE, INC., priority 2014, dated 2022)

Legend:
[1] = test system: DC-allosensitized T-cell proliferation; assay: allo-MLR T-cell proliferation (colorimetric MTS assay, stimulation index); assay type: cell-based, human; settings: for T-cell proliferation: day 5
Protocol: Allo-MLRs consisted of T cells stimulated by cytokine-mature moDCs (DC:T-cell ratio 1:30, 1×10^5 T cells per 100 μl medium in a 96-well plate, 37° C.). […] The allogeneic moDC stimulators were matured with a cytokine cocktail and terminally differentiated, eliminating the need for irradiation [Betts, B. C., et al. (2011) Blood 118, 5330-5339]. T-cell proliferation was quantified by a colorimetric assay (CellTiter 96 AQueous One Solution Cell Proliferation Assay [MTS]; Promega, Madison, Wis.) on day 5, per the manufacturer's instructions, with absorbance quantified at 490 nm [Betts, B. C., et al. (2011) Blood 118, 5330-5339]. The stimulation index was calculated by dividing the OD of the allo-MLR by the OD of T cells alone. PHA-stimulated T cells served as a positive control. Identical allo-MLRs were cultured with CAS 285986-31-4, to determine the dose-response effect of STAT5 inhibition on allostimulated T-cell growth. For these initial experiments, the cultures were analyzed on day 4 because of the early rapid T-cell proliferation among the STAT5 inhibitor-treated wells. The stimulation index was determined as described.

T cells = assay: T-cell viability by Live/Dead staining in treated allo-MLRs; assay type: cell-based, human
Protocol: Fluorochrome-conjugated mouse anti-human mAbs included anti-CD3, -CD4, -CD8, -CD25, -CD45RO, -CD107a, -CD127, -Foxp3, -pSTAT3/pY705, -pSTAT5/pY694, -IFN-, and -IL-17A (BD Biosciences, San Jose, Calif. USA; eBioscience; San Diego, Calif., USA; Invitrogen; Carlsbad, Calif., USA). Viability was assessed by Live/Dead staining (Invitrogen). Live events were acquired on FACSCalibur or LSRII (BD Biosciences) flow cytometers (FlowJo software, ver. 7.6.4; TreeStar, Ashland, Oreg., USA). Gates were defined by appropriate isotype controls. Naive T-cell sorting was performed on the FACSVantageDiVa (BD Biosciences). Where indicated, CD4^+ T cells were purified by magnetic-bead negative selection (Miltenyi Biotec, Auburn, Calif., USA).

STAT5 = STAT5 phosphorylation in CD4+ T cells of 5 day allo-MLRs without exogenous cytokine; assay type: cell-based, human
Protocol: No exogenous cytokine was added. DC-allosensitized T cells were harvested on day 5. […] The ratio of CD4^+, pSTAT5^Bright to CD4^+, pSTAT3^+ T cells was calculated by percentage of phosphorylation.

Foxp3 TSDR = assay: iTreg Foxp3 demethylation assay; assay type: cell-based, human; settings: S3I-201 50 or 100 μM
Text: iTreg Foxp3 demethylation assay. […] (2013) J. Immunol. 190, 3180-3188; Miyao, T., et al. (2012) Immunity 36, 262-275]. The degree of Foxp3 TSDR demethylation among iTregs from DMSO-treated allo-MLRs, purified nTregs, and Tconvs served as the controls [[…]., et al. (2013) Blood 122(13):2251-61]. For these experiments, iTregs and nTregs were sorted to select the CD4^+ CD25^+ CD127^- population. PCR products were amplified by using methylation or demethylation specific TSDR forward and reverse primers from bisulphate-treated genomic DNA of sorted natural Tregs. DNA fragments were cloned into a pCR2.1-Topo vector (Life Technologies, Grand Island, N.Y., USA) and verified by DNA sequencing. The following TSDR primers and probes were used for PCR: methylation forward [NT] ID NO:1), reverse [NT] ID NO:2), and hydrolysis probe [NT] (SEQ ID NO:3); and demethylation forward [NT] ID NO:4), reverse [NT] ID NO:5), and hydrolysis probe [NT] ID NO:6). Standards were diluted at concentrations ranging from 2^7 to 2^3 plasmid copies of each methylation or demethylation TSDR. Genomic DNA was isolated by using the DNeasy Blood and Tissue kit (Qiagen, Valencia, Calif., USA) from sorted natural or expanded iTregs. Genomic DNA (200-500 ng) was treated with bisulfite from the EZ DNA Methylation-Gold Kit (Zymo Research, Irvine, Calif., USA). […]

CD8+ T cells = assay: Evaluation of CD8 CTL capacity (CD107a, IFN-γ); assay type: cell-based, human; settings: S3I-201 50 or 100 μM, day 5
Protocol: The naive CD8^+ T cells were purified by live cell sorting (CD4^− and CD45RO/CD25^−) and were stimulated with allogeneic moDCs (DC:T cell ratio of 1:30), with S3I-201 (50 or 100 μM) or DMSO added once on day 0. On day 5, the allosensitized CD8 T cells were harvested and stimulated with PMA/ionomycin in the presence of Golgi Stop and anti-CD107a, followed by surface CD8 and intracellular IFN-γ staining.

STAT3 Y705 = target: T1, STAT3 Y705 (Homo sapiens, UniProt P40763); assay: IL-6-STAT3 Y705 phosphorylation in DC-allostimulated donor T-cells; assay type: cell-based; settings: S3I-201 50 uM, 4 hours, IL-6 pulse
T1 construct: endogenous in cells; host or cells: primary human T cells from healthy-donor PBMC, allostimulated by monocyte-derived dendritic cells
Protocol: T-cells were serum-starved in RPMI treated with DMSO diluent control, rapamycin 100 ng/ml (EMD Millipore, Billerica, Mass. USA), or STAT3 inhibitor S3I-201 50 uM (H. Lee Moffitt Cancer Center, Drug Discovery Core) for 4 hours. For the STAT3 experiments, the T-cells were first DC-allostimulated (DC:T-cell ratio of 1:30) for 3 days to optimize surface expression of IL-6 receptor alpha and STAT3 signaling among healthy volunteers. The T-cells were then cytokine-pulsed for 15 minutes with either IL-2 (R&D Systems) to activate the Akt-mTOR-S6 pathway, or IL-6 to stimulate STAT3 phosphorylation. The cells were then fixed and permeabilized as described, and then stained for CD3, CD4 (STAT3 experiments), phosphorylated STAT3 Y705, and phosphorylated S6.

[2] = target: STAT3 Ser727 and Y705 motifs (Homo sapiens, UniProt P40763); settings: literature; cited from earlier work
[3] = S3I-201 50 or 100 μM, 5 day allo-MLR

STAT3 Ser727 and Y705 motifs, sequence (P40763 whole entry): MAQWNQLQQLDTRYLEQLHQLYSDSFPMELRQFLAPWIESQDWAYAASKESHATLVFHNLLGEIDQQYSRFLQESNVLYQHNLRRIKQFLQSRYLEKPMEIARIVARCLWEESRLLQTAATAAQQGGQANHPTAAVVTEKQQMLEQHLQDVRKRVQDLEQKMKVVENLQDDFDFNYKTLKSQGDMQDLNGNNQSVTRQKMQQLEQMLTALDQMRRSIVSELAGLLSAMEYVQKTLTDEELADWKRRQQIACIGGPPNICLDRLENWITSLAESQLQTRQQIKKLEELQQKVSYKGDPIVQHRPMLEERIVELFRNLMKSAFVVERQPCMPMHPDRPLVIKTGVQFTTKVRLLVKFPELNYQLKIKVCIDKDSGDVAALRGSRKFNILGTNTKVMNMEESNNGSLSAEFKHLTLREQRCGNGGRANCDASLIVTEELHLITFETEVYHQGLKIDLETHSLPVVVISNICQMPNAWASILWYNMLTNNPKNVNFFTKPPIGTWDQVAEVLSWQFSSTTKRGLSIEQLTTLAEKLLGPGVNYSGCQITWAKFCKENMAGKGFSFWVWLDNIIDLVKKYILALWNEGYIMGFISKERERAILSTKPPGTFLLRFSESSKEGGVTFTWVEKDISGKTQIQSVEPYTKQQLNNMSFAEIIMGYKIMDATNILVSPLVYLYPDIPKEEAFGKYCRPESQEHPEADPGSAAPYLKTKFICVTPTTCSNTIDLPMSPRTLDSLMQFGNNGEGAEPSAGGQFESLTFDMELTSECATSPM
T1 sequence (P40763 whole entry): as above

SMILES: Cc1ccc(S(=O)(=O)OCC(=O)Nc2ccc(C(=O)O)c(O)c2)cc1 [S3I-201]
- reduction in T-cell proliferation ([1]; S3I-201 50 μM added once day 0, readout day 5): 50%
- T-cell proliferation ([1]; S3I-201 100 μM): complete impairment
- T-cell proliferation ([1]; S3I-201 1 or 10 μM): little effect
- T-cell proliferation in allo-MLRs compared with DMSO ([1]; S3I-201 50 or 100 μM, FIG. 1B): significantly reduced
- T-cell viability (T cells; S3I-201 50 μM): preserved
- T-cell viability (viability staining) (T cells; S3I-201 100 μM): toxicity
- CD4+, pSTAT5Bright population (STAT5; S3I-201 100 μM): trend in reduced STAT5 phosphorylation
- STAT5 activation in response to DC allostimuli (STAT5; [3]): preserved
- ratio of CD4+, pSTAT5Bright to CD4+, pSTAT3+ T cells (STAT5; [3]): robust, dose-dependent polarization
- CD4+, pSTAT5Bright population (STAT5; S3I-201 vs DMSO, 5 day allo-MLR): maintained
- iTreg Foxp3 demethylation compared with DMSO (Foxp3 TSDR): significantly enhanced
- CTL potential vs DMSO control (CD8+ T cells): not significantly different
- cytolytic potential by CD107a expression and intracellular IFN-γ production (CD8+ T cells): intact cytolytic potential
- IL-6-mediated STAT3 phosphorylation of Y705 (STAT3 Y705): significantly decreased
- phosphorylation of the STAT3 Ser727 motif [2]: much less
- phosphorylation of the STAT3 Y705 motif [2]: predominantly inhibits
